Experimental data as given in patent US6682896B1, “Peptides representing epitopic sites on r-IFN-β, antibodies thereto and uses thereof” (Schering Aktiengesellschaft, priority 1988, dated 2004).

Experiments:
Conditions in all cases: 50 μg peptide per well dried to well; goat anti-mouse/HRP, ABTS
[1] = system: neutralizing mAb A5; assay: ELISA binding of mAb A5 to plate-dried synthetic peptides
Method: (§1) A series of enzyme-linked immunosorbent assays (ELISA) were run in which a panel of three neutralizing mab's, identified as A1, A5 and A7 (developed by […] Grossberg at the Medical College of Wisconsin) and a single non-neutralizing mAb, identified as B2b (received from Medical College of Wisconsin, […] and S. Grossberg), was assessed for binding to synthetic peptides IB, IC, IE, and a control. In each case, the peptide was dissolved in 0.05M Tris buffer, pH 9.5 and aliquoted in 100 μl volumes to wells of a microtiter plate (Corning) at a concentration of 50 μg peptide per well. The plate was placed in a vacuum dessicator overnight to dry the peptide to the well. Standard ELISA procedures were followed after the overnight coupling, i.e. common blocking steps, washes, incubation conditions and color development of the appropriate goat anti-mouse/horseradish peroxidase conjugate with ABTS substrate. […] The non neutralizing mAb B2b reacted with peptides IB and IC but not with IE.

[2] = system: neutralizing mAb A7; assay: ELISA binding of mAb A7 to plate-dried synthetic peptides
Method: as §1

[3] = system: non-neutralizing mAb B2b; assay: ELISA binding of mAb B2b to plate-dried synthetic peptides
Method: as §1

With “H-IPEEIKQL-OH [peptide IE, NH2-Ile-Pro-Glu-Glu-Ile-Lys-Gln-Leu-COOH]” the “Reaction (binding) of mAb A5 with peptide in ELISA” value [1] was “preferential binding”, the “Reaction (binding) of mAb A7 with peptide in ELISA” value [2] was “virtually no activity” and the “Reaction (binding) of non-neutralizing mAb B2b with peptide in ELISA” value [3] was “not with IE”.
